Measurements reported in patent US7354904B2, “Bacteriocin inducer peptides” (priority 2005, dated 2008).

Legend:
[1] = tested on: C. jejuni; experiment: Spot Test, antagonistic activity of isolated signal peptides; assay type: cell-based, Campylobacter jejuni; settings: isolated signal peptide
Procedure: The antagonistic activity of the bacteriocins produced when using the signal peptide and an inducer strain of bacteria against C. jejuni and S. enteritidis was assessed using a Spot Test. The steps included taking various concentrations of pure preparation (μg/ml) of the bacteriocin in approximately 10 microliters of volume plated onto blood-supplemented Campylobacter agar or Nutrient agar (MPA or Meta Peptone Agar) previously seeded with cells of target bacteria. Plates containing cultures of C. jejuni were grown at about 42° C., under microaerobic conditions. Plates containing S. enteritidis were grown at about 37° C. under aerobic conditions. Activity of the bacteriocin was expressed in arbitrary units (AU) per one milliliter of the preparation at which a visible zone of inhibition of the growth of culture appears (Henderson et al., Archives of Biochemistry and Biophysics, Volume 295, 5-12, 1992; herein incorporated by reference). Specific activity can also expressed as arbitrary units per milligram of pure bacteriocin.
Its activity was about 200 AU/ml and its molecular weight was about 2.5 kDa, as determined by SDS-PAGE electrophoresis. The isoelectric point (pI) was about 7.9 (FIGS. 1A and 1B).
Its molecular weight was about 3.1 kDa as measured by SDS-PAGE and the isoelectric point (pI) was about 8.1 (FIGS. 2A and 2B).
Its molecular weight was about 2.1 kDa as determined by SDS-PAGE electrophoresis and its isoelectric point was about 8.9 (FIGS. 3A and 3B).

[2] = Isoelectric point by isoelectrofocusing; assay type: physicochemical
Excerpt: FIGS. 1A and 1B are photographs showing the direct detection of signal peptide and bacteriocin OR-7 after SDS-PAGE (A) and isoelectrofocusing (B). […] In FIG. 1A Lane 1-Molecular Mass Markers LMW Range 2,100-12,500 (Amersham Pharmacia Biotech): 2,100; 5,780; 8,400; 12,500 Da. […] Lane 3 contained pI standards (Protein Test Mixture, I Marker Proteins, Serva): 10.0, 9.2, 8.1, 6.9, 5.5, 4.3.
FIGS. 2A and 2B are photographs showing direct detection of signal peptide and bacteriocin 50-52 after SDS-PAGE (A) and isoelectrofocusing (B). […] Lane 3 contained pI standards (Protein Test Mixture, I Marker Proteins, Serva): 10.0, 8.1, 7.9, 6.4, 5.5, 4.3, 4.1, and 3.8.
FIGS. 3A and 3B are photographs showing the direct detection of signal peptide and bacteriocin 760 after SDS-PAGE(A) and isoelectrofocusing (B). […] Lane 3 contained pI standards (Protein Test Mixture, I Marker Proteins, Serva): 10.0, 8.1, 7.9, 6.4, 5.5, 4.3, 4.1, and 3.8.
At the end of 14 hours the supernatant from the cultures was placed into 500 ml centrifuge flasks with about one milliliter of regenerated Sepharose SP Fast Flow (v/v 500: 1). This was incubated for approximately 1 hour at room temperature with stirring. The suspension was then washed with about 100 ml of a 0.2 M TRIS-HCl buffer pH approximately 6.4. The bacteriocins were eluted by centrifugation with about 100 ml of approximately 0.2 M K2HPO4, pH of about 5.8 at about 7,000×g for approximately 10 minutes. Antagonistic activity of the bacteriocin fractions against C. jejuni and S. enteritidis was assessed using a Spot Test as described above. The level of purity of the bacteriocin fractions was determined by SDS-PAGE. The isoelectric points of the fractions were determined by isoelectric focusing. Concentrations of protein for all bacteriocin fractions were determined at 215 nm using a spectrophotometer.

[3] = tested on: Lactobacillus salivarius PVD-32; experiment: Influence of signal peptide on bacteriocin OR-7 production, flask culture (fraction protein at 215 nm, activity by Spot Test against C. jejuni and S. enteritidis); assay type: cell-based
[4] = tested on: Enterococcus faecium LWP 50-52; experiment: Influence of signal peptide on bacteriocin 50-52 production, flask culture (fraction protein at 215 nm, activity by spot-test against C. jejuni and S. enteritidis); assay type: cell-based; settings: LWP 50-52 + LWP 320
[5] = 10% B-B, producer PVD-32 + inducer LWP-252, LWP 50-52 peptide 0.1 mg
[6] = peptide 0.001 mg/ml added after about 2 hours
[7] = peptide 0.001 mg/ml added after about 4 hours
[8] = peptide 0.001 mg/ml added after about 6 hours
[9] = peptide 0.01 mg/ml added after about 2 hours
[10] = peptide 0.01 mg/ml added after about 4 hours
[11] = peptide 0.01 mg/ml added after about 6 hours
[12] = peptide 0.1 mg/ml added after about 2 hours
[13] = peptide 0.1 mg/ml added after about 4 hours

TNVTKSWWVLAGCNQVVASNCNCGNVKGLT (listed as Enterococcus faecium) [LWP 50-52 Signal Peptide, signal peptide isolated from Enterococcus faecium LWP 50-52, stimulates bacteriocin 50-52 production]
antagonistic activity [1]: did not possess antagonistic activity
isoelectric point (pI) [2]: about 8.1
Activity [3, 5]: 51,200 AU/ml
Protein Concentration [3, 5]: 0.17 Mg/ml
Protein increase vs. Control [3, 5]: 0.85
Specific Activity [3, 5]: 301,176 AU/mg
mg protein/liter [3, 5]: 56.1 mg protein/liter
yield of bacteriocin OR-7 versus the control ([3]; signal peptide of another strain added to PVD-32 + LWP-252): does not increase
Activity ([4]; peptide 0.001 mg/ml): 819,200 AU/ml
Protein Concentration ([4]; peptide 0.001 mg/ml): 0.25 mg/mL
Protein increase vs. Control ([4]; peptide 0.001 mg/ml): 1
Specific Activity ([4]; peptide 0.001 mg/ml): 3,276,800 AU/mg
mg protein/liter ([4]; peptide 0.001 mg/ml): 82.5 mg protein/liter
Activity [4, 6]: 819,200 AU/ml
Protein Concentration [4, 6]: 0.25 mg/mL
Protein increase vs. Control [4, 6]: 1
Specific Activity [4, 6]: 3,276,800 AU/mg
mg protein/liter [4, 6]: 82.5 mg protein/liter
Activity [4, 7]: 819,200 AU/ml
Protein Concentration [4, 7]: 0.25 mg/mL
Protein increase vs. Control [4, 7]: 1
Specific Activity [4, 7]: 3,276,800 AU/mg
mg protein/liter [4, 7]: 82.5 mg protein/liter
Activity [4, 8]: 819,200 AU/ml
Protein Concentration [4, 8]: 0.25 mg/mL
Protein increase vs. Control [4, 8]: 1
Specific Activity [4, 8]: 3,276,800 AU/mg
mg protein/liter [4, 8]: 82.5 mg protein/liter
Activity ([4]; peptide 0.01 mg/ml): 1,638,400 AU/ml
Protein Concentration ([4]; peptide 0.01 mg/ml): 1.0 mg/mL
Protein increase vs. Control ([4]; peptide 0.01 mg/ml): 4
Specific Activity ([4]; peptide 0.01 mg/ml): 1,638,400 AU/mg
mg protein/liter ([4]; peptide 0.01 mg/ml): 330.0 mg protein/liter
Activity [4, 9]: 3,276,800 AU/ml
Protein Concentration [4, 9]: 1.07 mg/mL
Protein increase vs. Control [4, 9]: 4.28
Specific Activity [4, 9]: 3,062,429 AU/mg
mg protein/liter ([4]; peptide 0.01 mg/ml added after about 2 hours, listed as LWP 320 Signal Peptide): 353.1 mg protein/liter
mg protein/liter ([4]; peptide 0.01 mg/ml added after about 2 hours, listed as signal peptide from LWP 50-52): about 353.1 mg protein/liter
Activity [4, 10]: 1,638,400 AU/ml
Protein Concentration [4, 10]: 1.0 mg/mL
Protein increase vs. Control [4, 10]: 4
Specific Activity [4, 10]: 1,638,400 AU/mg
mg protein/liter [4, 10]: 330.0 mg protein/liter
Activity [4, 11]: 1,638,400 AU/ml
Protein Concentration [4, 11]: 1.0 mg/mL
Protein increase vs. Control [4, 11]: 4
Specific Activity [4, 11]: 1,638,400 AU/mg
mg protein/liter [4, 11]: 330.0 mg protein/liter
Activity ([4]; peptide 0.1 mg/ml): 819,200 AU/ml
Protein Concentration ([4]; peptide 0.1 mg/ml): 0.25 mg/mL
Protein increase vs. Control ([4]; peptide 0.1 mg/ml): 1
Specific Activity ([4]; peptide 0.1 mg/ml): 3,276,800 AU/mg
mg protein/liter ([4]; peptide 0.1 mg/ml): 82.5 mg protein/liter
Activity [4, 12]: 819,200 AU/ml
Protein Concentration [4, 12]: 0.25 mg/mL
Protein increase vs. Control [4, 12]: 1
Specific Activity [4, 12]: 3,276,800 AU/mg
mg protein/liter [4, 12]: 82.5 mg protein/liter
Activity [4, 13]: 819,200 AU/ml
Protein Concentration [4, 13]: 0.25 mg/mL
Protein increase vs. Control [4, 13]: 1
Specific Activity [4, 13]: 3,276,800 AU/mg
mg protein/liter [4, 13]: 82.5 mg protein/liter
